Reference: patent US20170283834A1, “Processes for Producing A Fermentation Product Using A Fermenting Organism” (Novozymes A/S, priority 2014, published 2017)
Several values for one entry are separate records, joined by “and”; a condition that tells them apart may be missing. Equal entries are not always repeated.

What was measured:
Ethanol Red™ = experiment: Addition of benzoate, propionate and formate to ethanol fermentations (SSF of corn mash); type: cell-based, Saccharomyces cerevisiae; settings: for Glycerol pH 3.8 (w/v %) / Glycerol pH 5 (w/v %) / ETOH pH 3.8 (w/v %) / ETOH pH 5 (w/v %) / % Boost over no added acid: 54 hours; for % Boost over no added acid: ethanol; for % Change from no added acid: glycerol
Description: Industrially prepared corn mash was obtained from Lincolnland (Liquozyme™ SODS liquefaction).
After 15 minutes, the flasks were swirled, but no other agitation took place.
The pH after liquefaction was 4.9 and was adjusted to various pHs for SSF. […] Glucoamylase SA (“GSA”)/Cellulase VD (“CVD”) enzyme blend was dosed to each tube of mash at 110 μg EP GSA/gDS and 30 μg EP CVD/gDS. […] Benzoic acid was added in the range of 0-0.8 mM. Propionic and Formic acid were added in the range of 0-30 mM. All acid additions were done prior to inoculation (i.e., before exponential growth).
Each tube was processed for HPLC analysis by deactivation with 150 μL of 40% v/v H2SO4, vortexing, centrifuging at 1460×g for 10 minutes, and filtering through a 0.45 μm Whatman PP filter. All samples were processed without further dilution.

zein = experiment: Relative activity assay of protease variants (zein micro titer plate); type: biochemical
Method in brief: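 Relative activity is the ratio of zein clearance (A630 turbidity) at a higher versus lower temperature, e.g. 60/65 °C or 70/80 °C. Supernatants from 3-day yeast cultures applied to 0.05-0.1% zein agar in 20 mM sodium acetate pH 4.5 with zinc, incubated at least 4 h.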

[1] = acid Concentration 10 (mM), pH 3.8
[2] = acid Concentration 10 (mM), pH 5
[3] = acid Concentration 20 (mM), pH 3.8
[4] = acid Concentration 20 (mM), pH 5
[5] = acid Concentration 30 (mM), pH 3.8
[6] = acid Concentration 30 (mM), pH 5

CCC(=O)O [Propionic Acid, propionic acid]
Glycerol pH 3.8 (w/v %) (Ethanol Red™; Concentration 10 mM, pH 3.8): 0.985 w/v % | Glycerol pH 5 (w/v %) (Ethanol Red™; Concentration 10 mM, pH 5): 1.017 w/v % | Glycerol pH 3.8 (w/v %) (Ethanol Red™; Concentration 20 mM, pH 3.8): 0.896 w/v % | Glycerol pH 5 (w/v %) (Ethanol Red™; Concentration 20 mM, pH 5): 0.927 w/v % | Glycerol pH 3.8 (w/v %) (Ethanol Red™; Concentration 30 mM, pH 3.8): 0.654 w/v % | Glycerol pH 5 (w/v %) (Ethanol Red™; Concentration 30 mM, pH 5): 0.874 w/v % | ETOH pH 3.8 (w/v %) (Ethanol Red™; [1]): 13.2 w/v % | ETOH pH 5 (w/v %) (Ethanol Red™; [2]): 13.26 w/v % | ETOH pH 3.8 (w/v %) (Ethanol Red™; [3]): 11.67 w/v % | ETOH pH 5 (w/v %) (Ethanol Red™; [4]): 12.87 w/v % | ETOH pH 3.8 (w/v %) (Ethanol Red™; [5]): 3.064 w/v % | ETOH pH 5 (w/v %) (Ethanol Red™; [6]): 11.8064 w/v % | % Boost over no added acid (Ethanol Red™; [1]): −1.27% | % Boost over no added acid (Ethanol Red™; [2]): 2.2% and 2.21% | % Boost over no added acid (Ethanol Red™; [3]): −12.7% | % Boost over no added acid (Ethanol Red™; [4]): −0.84% | % Boost over no added acid (Ethanol Red™; [5]): −77.08% | % Boost over no added acid (Ethanol Red™; [6]): −9.03% | % Change from no added acid (Ethanol Red™; Concentration 10 mM, pH 3.8): −24.78% | % Change from no added acid (Ethanol Red™; Concentration 10 mM, pH 5): −24.26% | % Change from no added acid (Ethanol Red™; Concentration 20 mM, pH 3.8): −31.55% | % Change from no added acid (Ethanol Red™; Concentration 20 mM, pH 5): −30.95% | % Change from no added acid (Ethanol Red™; Concentration 30 mM, pH 3.8): −50.02% | % Change from no added acid (Ethanol Red™; Concentration 30 mM, pH 5): −34.94% | effect on ethanol production at pH 3.8 (Ethanol Red™; pH 3.8): negative effect

B1: JTP181: protease variant of SEQ ID NO: 3: D79L Y82F S87G Y97W D104P A112P D142L (protein, listed as Thermoascus aurantiacus)
chain: MRLVASLTALVALSVPVFPAAVNVKRASSYLEITLSQVSNTLIKAVVQNTGSDELSFVHLNFFKDPAPVKKVSVYRDGSEVQFEGILSRYKSTGLSRDAFTYLAPGESVEDVFDIASTYDLTSGGPVTIRTEGVVPYATANSTDIAGYISYSSNVLTIDVDGAAAATVSKAITPLDRRTRISSCSGSRQSALTTALRNAASLANAAADAAQSGSASKFSEYFKTTSSSTRQTVAARLRAVAREASSSSSGATTYYCLDPFGYCSGNVLAYTLPSWNIIANCPIFYTYLPPLTSTCHAQDQATTALHEFTHAPGVYSPGTLDLAYGYQAAMGLSSSQAVMNADTYALYANAIYLGC
Relative activity 80° C./70° C. (zein; Table 5, upper part): 45%

B2: JTP210: protease variant of SEQ ID NO: 3: A27K Y82F S87G D104P A112P A126V D142L (protein, listed as Thermoascus aurantiacus)
chain: MRLVASLTALVALSVPVFPAAVNVKRASSYLEITLSQVSNTLIKAVVQNTGSDELSFVHLNFFKDPAPVKKVSVYRDGSEVQFEGILSRYKSTGLSRDAFTYLAPGESVEDVFDIASTYDLTSGGPVTIRTEGVVPYATANSTDIAGYISYSSNVLTIDVDGAAAATVSKAITPLDRRTRISSCSGSRQSALTTALRNAASLANKAADAAQSGSASKFSEYFKTTSSSTRQTVAARLRAVAREASSSSSGATTYYCDDPFGYCSGNVLAYTLPSYNIIANCPIFYTYLPPLTSTCHAQDQATTVLHEFTHAPGVYSPGTLDLAYGYQAAMGLSSSQAVMNADTYALYANAIYLGC
Relative activity 75° C./70° C. (zein; Table 5, lower part): 107% | Relative activity 80° C./70° C. (zein; Table 5, lower part): 36%

B3: JTP189: protease variant of SEQ ID NO: 3: D79L Y82F S87G A112P A126V D142L (protein, listed as Thermoascus aurantiacus)
chain: MRLVASLTALVALSVPVFPAAVNVKRASSYLEITLSQVSNTLIKAVVQNTGSDELSFVHLNFFKDPAPVKKVSVYRDGSEVQFEGILSRYKSTGLSRDAFTYLAPGESVEDVFDIASTYDLTSGGPVTIRTEGVVPYATANSTDIAGYISYSSNVLTIDVDGAAAATVSKAITPLDRRTRISSCSGSRQSALTTALRNAASLANAAADAAQSGSASKFSEYFKTTSSSTRQTVAARLRAVAREASSSSSGATTYYCLDPFGYCSGNVLAYTLPSYNIIANCDIFYTYLPPLTSTCHAQDQATTVLHEFTHAPGVYSPGTLDLAYGYQAAMGLSSSQAVMNADTYALYANAIYLGC
Relative activity 80° C./70° C. (zein; Table 5, upper part): 46%

B4: JTP193: protease variant of SEQ ID NO: 3: Y82F S87G S70V D79L D104P A112P D142L (protein, listed as Thermoascus aurantiacus)
chain: MRLVASLTALVALSVPVFPAAVNVKRASSYLEITLSQVSNTLIKAVVQNTGSDELSFVHLNFFKDPAPVKKVSVYRDGSEVQFEGILSRYKSTGLSRDAFTYLAPGESVEDVFDIASTYDLTSGGPVTIRTEGVVPYATANSTDIAGYISYSSNVLTIDVDGAAAATVSKAITPLDRRTRISSCSGSRQSALTTALRNAASLANAAADAAQSGSASKFSEYFKTTSSSTRQTVAARLRAVAREASSSVSGATTYYCLDPFGYCSGNVLAYTLPSYNIIANCPIFYTYLPPLTSTCHAQDQATTALHEFTHAPGVYSPGTLDLAYGYQAAMGLSSSQAVMNADTYALYANAIYLGC
Relative activity 85° C./70° C. (zein; Table 5, upper part): 15%

B5: JTP194: protease variant of SEQ ID NO: 3: Y82F S87G D79L D104P A112P A126V D142L (protein, listed as Thermoascus aurantiacus)
chain: MRLVASLTALVALSVPVFPAAVNVKRASSYLEITLSQVSNTLIKAVVQNTGSDELSFVHLNFFKDPAPVKKVSVYRDGSEVQFEGILSRYKSTGLSRDAFTYLAPGESVEDVFDIASTYDLTSGGPVTIRTEGVVPYATANSTDIAGYISYSSNVLTIDVDGAAAATVSKAITPLDRRTRISSCSGSRQSALTTALRNAASLANAAADAAQSGSASKFSEYFKTTSSSTRQTVAARLRAVAREASSSSSGATTYYCLDPFGYCSGNVLAYTLPSYNIIANCPIFYTYLPPLTSTCHAQDQATTVLHEFTHAPGVYSPGTLDLAYGYQAAMGLSSSQAVMNADTYALYANAIYLGC
Relative activity 85° C./70° C. (zein; Table 5, upper part): 22%

B6: JTP211: protease variant of SEQ ID NO: 3: A27K D79L Y82F D104P A112P A126V D142L (protein, listed as Thermoascus aurantiacus)
chain: MRLVASLTALVALSVPVFPAAVNVKRASSYLEITLSQVSNTLIKAVVQNTGSDELSFVHLNFFKDPAPVKKVSVYRDGSEVQFEGILSRYKSTGLSRDAFTYLAPGESVEDVFDIASTYDLTSGGPVTIRTEGVVPYATANSTDIAGYISYSSNVLTIDVDGAAAATVSKAITPLDRRTRISSCSGSRQSALTTALRNAASLANKAADAAQSGSASKFSEYFKTTSSSTRQTVAARLRAVAREASSSSSGATTYYCLDPFGYCSSNVLAYTLPSYNIIANCPIFYTYLPPLTSTCHAQDQATTVLHEFTHAPGVYSPGTLDLAYGYQAAMGLSSSQAVMNADTYALYANAIYLGC
Relative activity 75° C./70° C. (zein; Table 5, lower part): 94% | Relative activity 80° C./70° C. (zein; Table 5, lower part): 44%

B7: JTP213: protease variant of SEQ ID NO: 3: A27K Y82F D104P A112P A126V D142L (protein, listed as Thermoascus aurantiacus)
chain: MRLVASLTALVALSVPVFPAAVNVKRASSYLEITLSQVSNTLIKAVVQNTGSDELSFVHLNFFKDPAPVKKVSVYRDGSEVQFEGILSRYKSTGLSRDAFTYLAPGESVEDVFDIASTYDLTSGGPVTIRTEGVVPYATANSTDIAGYISYSSNVLTIDVDGAAAATVSKAITPLDRRTRISSCSGSRQSALTTALRNAASLANKAADAAQSGSASKFSEYFKTTSSSTRQTVAARLRAVAREASSSSSGATTYYCDDPFGYCSSNVLAYTLPSYNIIANCPIFYTYLPPLTSTCHAQDQATTVLHEFTHAPGVYSPGTLDLAYGYQAAMGLSSSQAVMNADTYALYANAIYLGC
Relative activity 75° C./70° C. (zein; Table 5, lower part): 103% | Relative activity 80° C./70° C. (zein; Table 5, lower part): 37%

B8: JTP134: protease variant of SEQ ID NO: 3: D79L Y82F S87P A112P D142L (protein, listed as Thermoascus aurantiacus)
chain: MRLVASLTALVALSVPVFPAAVNVKRASSYLEITLSQVSNTLIKAVVQNTGSDELSFVHLNFFKDPAPVKKVSVYRDGSEVQFEGILSRYKSTGLSRDAFTYLAPGESVEDVFDIASTYDLTSGGPVTIRTEGVVPYATANSTDIAGYISYSSNVLTIDVDGAAAATVSKAITPLDRRTRISSCSGSRQSALTTALRNAASLANAAADAAQSGSASKFSEYFKTTSSSTRQTVAARLRAVAREASSSSSGATTYYCLDPFGYCSPNVLAYTLPSYNIIANCDIFYTYLPPLTSTCHAQDQATTALHEFTHAPGVYSPGTLDLAYGYQAAMGLSSSQAVMNADTYALYANAIYLGC
Relative activity 80° C./70° C. (zein; Table 5, upper part): 40%

B9: JTP187: protease variant of SEQ ID NO: 3: S70V D79L Y82F S87G A112P D142L (protein, listed as Thermoascus aurantiacus)
chain: MRLVASLTALVALSVPVFPAAVNVKRASSYLEITLSQVSNTLIKAVVQNTGSDELSFVHLNFFKDPAPVKKVSVYRDGSEVQFEGILSRYKSTGLSRDAFTYLAPGESVEDVFDIASTYDLTSGGPVTIRTEGVVPYATANSTDIAGYISYSSNVLTIDVDGAAAATVSKAITPLDRRTRISSCSGSRQSALTTALRNAASLANAAADAAQSGSASKFSEYFKTTSSSTRQTVAARLRAVAREASSSVSGATTYYCLDPFGYCSGNVLAYTLPSYNIIANCDIFYTYLPPLTSTCHAQDQATTALHEFTHAPGVYSPGTLDLAYGYQAAMGLSSSQAVMNADTYALYANAIYLGC
Relative activity 80° C./70° C. (zein; Table 5, upper part): 45%
